Here are results for 3 compounds from ChEMBL document CHEMBL1148315, “Photoaffinity labeling of the anionic sites in Caco-2 cells mediating saturable transport of hydrophilic cations ranitidine and famotidine” (2004).

Common to all, as to type: functional, Homo sapiens
The subject of test [1] is Caco-2. Briefly: Inhibition of irreversible increase in transepithelial electrical resistance across Caco-2 cell monolayer by the compound in the presence of 5 mM of famotidine.
Test [2] has as its system Caco-2. Briefly: Inhibition of Ranitidine transport across Caco-2 cell monolayer by the compound (200 uM) After photoactivation at 254 nM. A general note: Caco-2 cells form a polarised layer with tight junctions and transporters.
Test [3] deals with Caco-2. Briefly: Inhibition of apical to basolateral transport of Ranitidine (100 uM) across Caco-2 cell monolayer in the presence of 300 uM of compound.
For test [4], the system named is Caco-2. Kind of test: Ability to increase the transepithelial electrical resistance across Caco-2 cell monolayer at 200 uM concentration.

In general, Inhibition refers to the change of the read-out against control, counted positive when it falls. Turning to `N=C(N)Nc1nc(CSCCC(=N)NS(N)(=O)=O)cs1.[N-]=[N+]=Nc1ccc(C(=O)NCCSCc2csc(NC(=N)N)n2)cc1`, in the test with Caco-2 [1], the Inhibition was 35%.
For the compound `CNC(=C[N+](=O)[O-])NCCSCc1ccc(CN(C)C)o1.[N-]=[N+]=Nc1ccc(C(=O)NCCSCc2csc(NC(=N)N)n2)cc1`, the Inhibition was 35% in the test on Caco-2 [2] and 40% in the test with Caco-2 [3].
With `[N-]=[N+]=Nc1ccc(C(=O)NCCSCc2csc(NC(=N)N)n2)cc1`, in the test with Caco-2 [4], the Increase was 120%.
